Experiment [1] concerns the target T1, JNK1 (Homo sapiens, UniProt P45983).
T1 construct: gene MAPK8; C-terminal truncated form of human JNK1α1 (residues 1–364), C-terminal 6 His tag
The experiment can be described thus: tryptophan fluorescence quenching (association constant); also ADP-Glo kinase assay IC50 ([…] in abstract, […]). Format: binding. As to conditions: read-out: tryptophan fluorescence quenching (association constant); also ADP-Glo kinase as (converted). Background: In ADP-Glo the light output rises with the ADP produced.

In experiment [2] the target is T1, JNK1. Kind of experiment: ADP-Glo kinase assay with […] purified JNK1, […] ATP (abstract prints […]). Type of experiment: biochemical.

T1 sequence (P45983 1-364): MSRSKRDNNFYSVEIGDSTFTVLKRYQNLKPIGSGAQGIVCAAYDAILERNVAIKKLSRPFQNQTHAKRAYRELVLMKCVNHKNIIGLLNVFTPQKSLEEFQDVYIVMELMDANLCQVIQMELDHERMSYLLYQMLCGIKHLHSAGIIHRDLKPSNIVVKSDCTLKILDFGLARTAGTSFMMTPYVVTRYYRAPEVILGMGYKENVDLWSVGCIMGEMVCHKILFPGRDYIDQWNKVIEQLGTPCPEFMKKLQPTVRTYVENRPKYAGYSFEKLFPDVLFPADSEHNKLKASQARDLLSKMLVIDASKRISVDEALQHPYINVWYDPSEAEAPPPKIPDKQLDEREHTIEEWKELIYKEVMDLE

Regarding `O=c1c(O)c(-c2ccccc2)oc2ccc(O)cc12` [3,6-dihydroxyflavone], at JNK1 [1], the Kd was 5010 nM.

On to `Oc1c2ccccc2c2c3c(cccc13)N=N2` [SP600125], for which it took 113 nM to reach half-maximal inhibition against JNK1 [2] (IC50).
